Measured values from patent US20260007758A1, “SO[…]-2 RECEPTOR (SST2R) NON-PEPTIDE DRUG CONJUGATES AND USES THEREOF” (Crinetics Pharmaceuticals, Inc., priority 2024, published 2026).

Key:
Type in all cases: cell-based
[1] = target: T1, human somatostatin receptor subtype 2 (Homo sapiens, UniProt P30874); assay: Functional assay for SSTR2 agonists (HTRF cAMP); conditions: CHO-K1 cells stably expressing human SST2; NKH477-stimulated cAMP; 20 min at 37 C; read-out: hSST2 cAMP Avg EC50
T1 construct: expressed in transfected cells
Procedure, shortened: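 CHO-K1 cells stably expressing human SSTR2 treated with compound (typically 0-10,000 nM final) for 20 min at 37 °C. Lysate cAMP measured by HTRF (665/620 nm ratio), converted via standard curve; EC50 from cAMP vs concentration.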

[2] = target: T2, SST2 (Homo sapiens, UniProt P30874); assay: PathHunter CHO-K1 SST2 Internalization Assay; conditions: PathHunter CHO-K1 SST2 cells; 90 min at 37 C; luminescence; read-out: Internalization EC50
T2 construct: host or cells: PathHunter CHO-K1 SST2 cells
Procedure, shortened: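 CHO-K1 cells expressing human SST2, 2500 cells/well, grown 48 h, then exposed 90 min at 37 C to 11-point 1:3 NDC dilutions (final top 10 uM). Beta-Glo luminescence after 60 min at room temperature; four-parameter IC50, duplicate mean, background-corrected.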

[3] = test system: NCI-H524 human small cell lung cancer cells; assay: H524 assay: inhibition of cell proliferation (CellTiter Glo); conditions: 2 h treatment, washout, additional 70 h incubation
Procedure, shortened: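 NCI-H524 cells were exposed for 2 h to NDC in an 11-point two-fold series starting at 1 uM. The drug was then washed out and cells grew a further 70 h. CellTiter Glo luminescence gave % inhibition versus untreated control, and IC50 came from a four-parameter nonlinear regression.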

T1 sequence (P30874 whole entry): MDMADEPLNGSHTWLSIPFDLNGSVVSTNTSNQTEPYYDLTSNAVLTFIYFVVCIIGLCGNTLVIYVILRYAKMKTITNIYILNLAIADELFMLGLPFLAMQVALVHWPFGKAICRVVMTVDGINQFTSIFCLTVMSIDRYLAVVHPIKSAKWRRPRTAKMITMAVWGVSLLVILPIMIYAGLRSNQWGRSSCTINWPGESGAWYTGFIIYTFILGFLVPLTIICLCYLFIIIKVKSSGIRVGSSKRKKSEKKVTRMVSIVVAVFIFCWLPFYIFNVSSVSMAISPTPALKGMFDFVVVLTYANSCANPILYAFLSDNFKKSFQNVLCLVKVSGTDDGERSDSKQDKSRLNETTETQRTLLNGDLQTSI
T2 sequence (P30874 whole entry): as above

CC[C@H](C)[C@@H]([C@@H](CC(=O)N1CCC[C@H]1[C@H](OC)[C@@H](C)C(=O)N[C@H](C)[C@@H](O)c1ccccc1)OC)N(C)C(=O)[C@@H](NC(=O)[C@H](C(C)C)N(C)C(=O)OCc1ccc(NC(=O)[C@H](C)NC(=O)[C@@H](NC(=O)CCOCCC(=O)NCCNc2ncc(-c3cc(C)cc(F)c3)c(N3CCC(N)CC3)c2-c2nc3ccc(Cl)cc3[nH]2)C(C)C)c(O[C@@H]2O[C@H](C(N)=O)[C@@H](O)[C@H](O)[C@H]2O)c1)C(C)C [Compound 34]
EC50 [1]: 0.12 nM | EC50 [2]: 4.4 nM | EC50 [3]: 1.6 nM

CC[C@H](C)[C@@H]([C@@H](CC(=O)N1CCC[C@H]1[C@H](OC)[C@@H](C)C(=O)N[C@H](C)[C@@H](O)c1ccccc1)OC)N(C)C(=O)[C@@H](NC(=O)[C@H](C(C)C)N(C)C(=O)OCc1ccc(NC(=O)[C@H](CCCNC(N)=O)NC(=O)[C@@H](NC(=O)C[C@@H](N)C(=O)NCCOCCC(=O)NCCNc2ncc(-c3cc(C)cc(F)c3)c(N3CCC(N)CC3)c2-c2nc3ccc(Cl)cc3[nH]2)C(C)C)c(O[C@@H]2O[C@H](C(=O)NCC(=O)O)[C@@H](O)[C@H](O)[C@H]2O)c1)C(C)C [Compound 35]
EC50 [1]: 0.1 nM | EC50 [2]: 5 nM | EC50 [3]: 16 nM

CC[C@H](C)[C@@H]([C@@H](CC(=O)N1CCC[C@H]1[C@H](OC)[C@@H](C)C(=O)N[C@H](C)[C@@H](O)c1ccccc1)OC)N(C)C(=O)[C@@H](NC(=O)[C@H](C(C)C)N(C)C(=O)OCc1ccc(NC(=O)[C@H](CCCNC(N)=O)NC(=O)[C@@H](NC(=O)CCOCCC(=O)NCCNc2ncc(-c3cc(C)cc(F)c3)c(N3CCC(N)CC3)c2-c2nc3ccc(Cl)cc3[nH]2)C(C)C)c(O[C@@H]2O[C@H](C(=O)NCCN)[C@@H](O)[C@H](O)[C@H]2O)c1)C(C)C [Compound 40]
EC50 [1]: 0.2 nM | EC50 [2]: 8.7 nM | EC50 [3]: 1.7 nM

CC[C@H](C)[C@@H]([C@@H](CC(=O)N1CCC[C@H]1[C@H](OC)[C@@H](C)C(=O)N[C@H](C)[C@@H](O)c1ccccc1)OC)N(C)C(=O)[C@@H](NC(=O)[C@H](C(C)C)N(C)C(=O)OCc1ccc(NC(=O)[C@H](C)NC(=O)[C@@H](NC(=O)[C@@H](CS(=O)(=O)O)NC(=O)CCOCCC(=O)NCCNc2ncc(-c3cc(C)cc(F)c3)c(N3CCC(N)CC3)c2-c2nc3ccc(Cl)cc3[nH]2)C(C)C)c(O[C@@H]2O[C@H](C(=O)NCCN)[C@@H](O)[C@H](O)[C@H]2O)c1)C(C)C [Compound 41]
EC50 [1]: 0.081 nM | EC50 [2]: 9 nM | EC50 [3]: 40 nM

CC[C@H](C)[C@@H]([C@@H](CC(=O)N1CCC[C@H]1[C@H](OC)[C@@H](C)C(=O)N[C@H](C)[C@@H](O)c1ccccc1)OC)N(C)C(=O)[C@@H](NC(=O)[C@H](C(C)C)N(C)C(=O)OCc1ccc(NC(=O)[C@H](C)NC(=O)[C@@H](NC(=O)CCOCCC(=O)N(C)CC(=O)NCCNc2ncc(-c3cc(C)cc(F)c3)c(N3CCC(N)CC3)c2-c2nc3ccc(Cl)cc3[nH]2)C(C)C)c(O[C@@H]2O[C@H](C(=O)NCC(=O)O)[C@@H](O)[C@H](O)[C@H]2O)c1)C(C)C [Compound 42]
EC50 [1]: 0.1 nM | EC50 [2]: 3.8 nM | EC50 [3]: 25 nM

CC[C@H](C)[C@@H]([C@@H](CC(=O)N1CCC[C@H]1[C@H](OC)[C@@H](C)C(=O)N[C@H](C)[C@@H](O)c1ccccc1)OC)N(C)C(=O)[C@@H](NC(=O)[C@H](C(C)C)N(C)C(=O)OCc1ccc(NC(=O)[C@H](CCCNC(N)=O)NC(=O)[C@@H](NC(=O)CCOCCC(=O)NCCNc2ncc(-c3cc(C)cc(F)c3)c(N3CCC(N)CC3)c2-c2cc3ccc(Cl)cc3[nH]2)C(C)C)c(O[C@@H]2C[C@H](C(=O)NCCN)[C@@H](O)[C@H](O)[C@H]2O)c1)C(C)C [Compound 43]
EC50 [1]: 0.24 nM | EC50 [2]: 6.6 nM | EC50 [3]: 1.8 nM

CC[C@H](C)[C@@H]([C@@H](CC(=O)N1CCC[C@H]1[C@H](OC)[C@@H](C)C(=O)N[C@H](C)[C@@H](O)c1ccccc1)OC)N(C)C(=O)[C@@H](NC(=O)[C@H](C(C)C)N(C)C(=O)OCc1ccc(NC(=O)[C@H](CCCNC(N)=O)NC(=O)[C@@H](NC(=O)CCOCCC(=O)NCCNc2ncc(-c3cc(C)cc(F)c3)c(N3CCC(N)CC3)c2-c2nc3cc(Cl)ccc3[nH]2)C(C)C)c(O[C@@H]2O[C@H](C(=O)NCC(=O)O)[C@@H](O)[C@H](O)[C@H]2O)c1)C(C)C [Compound 44]
EC50 [1]: 0.085 nM | EC50 [2]: 4.5 nM | EC50 [3]: 4.8 nM

CC[C@H](C)[C@@H]([C@@H](CC(=O)N1CCC[C@H]1[C@H](OC)[C@@H](C)C(=O)N[C@H](C)[C@@H](O)c1ccccc1)OC)N(C)C(=O)[C@@H](NC(=O)[C@H](C(C)C)N(C)C(=O)OCc1ccc(NC(=O)[C@H](CCCNC(N)=O)NC(=O)[C@@H](NC(=O)CCOCCC(=O)NCCNc2ncc(-c3cc(C)cc(F)c3)c(N3CCC(N)CC3)c2-c2nc3ccc(Cl)cc3[nH]2)C(C)C)c(O[C@@H]2O[C@H](C(=O)NCCC(=O)O)[C@@H](O)[C@H](O)[C@H]2O)c1)C(C)C [Compound 49]
EC50 [1]: 0.14 nM | EC50 [2]: 3.4 nM | EC50 [3]: 9.4 nM

CC[C@H](C)[C@@H]([C@@H](CC(=O)N1CCC[C@H]1[C@H](OC)[C@@H](C)C(=O)N[C@H](C)[C@@H](O)c1ccccc1)OC)N(C)C(=O)[C@@H](NC(=O)[C@H](C(C)C)N(C)C(=O)OCc1ccc(NC(=O)[C@H](C)NC(=O)[C@@H](NC(=O)CCOCCC(=O)N(C)CC(=O)NCCNc2ncc(-c3cc(C)cc(F)c3)c(N3CCC(N)CC3)c2-c2nc3ccc(Cl)cc3[nH]2)C(C)C)c(O[C@@H]2O[C@H](C(=O)NCS(=O)(=O)O)[C@@H](O)[C@H](O)[C@H]2O)c1)C(C)C [Compound 50]
EC50 [1]: 0.13 nM | EC50 [2]: 6.8 nM | EC50 [3]: 36 nM

CC[C@H](C)[C@@H]([C@@H](CC(=O)N1CCC[C@H]1[C@H](OC)[C@@H](C)C(=O)N[C@H](C)[C@@H](O)c1ccccc1)OC)N(C)C(=O)[C@@H](NC(=O)[C@H](C(C)C)N(C)C(=O)OCc1ccc(NC(=O)[C@H](C)NC(=O)[C@@H](NC(=O)CCOCCC(=O)N(C)CC(=O)NCCNc2ncc(-c3cc(C)cc(F)c3)c(N3CCC(N)CC3)c2-c2nc3ccc(Cl)cc3[nH]2)C(C)C)c(O[C@@H]2O[C@H](C(=O)NCCS(=O)(=O)O)[C@@H](O)[C@H](O)[C@H]2O)c1)C(C)C [Compound 51]
EC50 [1]: 0.092 nM | EC50 [2]: 4.4 nM | EC50 [3]: 28 nM

CC[C@H](C)[C@@H]([C@@H](CC(=O)N1CCC[C@H]1[C@H](OC)[C@@H](C)C(=O)N[C@H](C)[C@@H](O)c1ccccc1)OC)N(C)C(=O)[C@@H](NC(=O)[C@H](C(C)C)N(C)C(=O)OCc1ccc(NC(=O)[C@H](CCCNC(N)=O)NC(=O)[C@@H](NC(=O)CCOCCC(=O)NCCNc2ncc(-c3cc(C)cc(F)c3)c(N3CCC(N)CC3)c2-c2nc3ccc(Cl)cc3[nH]2)C(C)C)c(O[C@@H]2O[C@H](C(=O)NCCNC(=O)CCOCCOCCOCCOCCC(=O)O)[C@@H](O)[C@H](O)[C@H]2O)c1)C(C)C [Compound 52]
EC50 [1]: 0.14 nM | EC50 [2]: 3.5 nM | EC50 [3]: 17 nM

CC[C@H](C)[C@@H]([C@@H](CC(=O)N1CCC[C@H]1[C@H](OC)[C@@H](C)C(=O)N[C@H](C)[C@@H](O)c1ccccc1)OC)N(C)C(=O)[C@@H](NC(=O)[C@H](C(C)C)N(C)C(=O)OCc1ccc(NC(=O)[C@H](CCCNC(N)=O)NC(=O)[C@@H](NC(=O)CCOCCC(=O)NCCNc2ncc(-c3cc(C)cc(F)c3)c(N3CCC(N)CC3)c2-c2nc3ccc(Cl)cc3[nH]2)C(C)C)c(O[C@@H]2O[C@H](C(=O)N[C@@H](CCCCNC(=O)CCCCc3ccc(I)cc3)C(=O)O)[C@@H](O)[C@H](O)[C@H]2O)c1)C(C)C [Compound 54]
EC50 [1]: 0.26 nM | EC50 [2]: 2.1 nM | EC50 [3]: 20 nM

CC[C@H](C)[C@@H]([C@@H](CC(=O)N1CCC[C@H]1[C@H](OC)[C@@H](C)C(=O)N[C@H](C)[C@@H](O)c1ccccc1)OC)N(C)C(=O)[C@@H](NC(=O)[C@H](C(C)C)N(C)C(=O)OCc1ccc(NC(=O)[C@H](CCCNC(N)=O)NC(=O)[C@@H](NC(=O)CCOCCC(=O)NCCNc2ncc(-c3cc(C)cc(F)c3)c(N3CCC(N)CC3)c2-c2nc3ccc(Cl)cc3[nH]2)C(C)C)c(O[C@@H]2O[C@H](C(=O)NCCC(=O)N[C@@H](CCCCNC(=O)CCCCc3ccc(I)cc3)C(=O)O)[C@@H](O)[C@H](O)[C@H]2O)c1)C(C)C [Compound 55]
EC50 [1]: 0.25 nM | EC50 [2]: 2 nM | EC50 [3]: 11 nM

CC[C@H](C)[C@@H]([C@@H](CC(=O)N1CCC[C@H]1[C@H](OC)[C@@H](C)C(=O)N[C@H](C)[C@@H](O)c1ccccc1)OC)N(C)C(=O)[C@@H](NC(=O)[C@H](C(C)C)N(C)C(=O)OCc1ccc(NC(=O)[C@H](CCCNC(N)=O)NC(=O)[C@@H](NC(=O)CCCC(=O)N(C)CC(=O)NCCNc2ncc(-c3cc(C)cc(F)c3)c(N3CCC(N)CC3)c2-c2nc3ccc(Cl)cc3[nH]2)C(C)C)c(O[C@@H]2O[C@H](C(=O)O)[C@@H](O)[C@H](O)[C@H]2O)c1)C(C)C [Compound 56]
EC50 [1]: 0.81 nM | EC50 [2]: 68 nM | EC50 [3]: 26 nM

CC[C@H](C)[C@@H]([C@@H](CC(=O)N1CCC[C@H]1[C@H](OC)[C@@H](C)C(=O)N[C@H](C)[C@@H](O)c1ccccc1)OC)N(C)C(=O)[C@@H](NC(=O)[C@H](C(C)C)N(C)C(=O)OCc1ccc(NC(=O)[C@H](CCCNC(N)=O)NC(=O)[C@@H](NC(=O)[C@H](CCC(=O)O)NC(=O)CCOCCC(=O)NCCNc2ncc(-c3cc(C)cc(F)c3)c(N3CCC(N)CC3)c2-c2nc3ccc(Cl)cc3[nH]2)C(C)C)cc1C(=O)NCCNC)C(C)C [Compound 57]
EC50 [1]: 0.31 nM | EC50 [2]: 6.6 nM | EC50 [3]: 1000 nM
